In patent US5563154A, “Tetrahydro-quinolinyl/isoquinolinyl-terminal alkylamino ethynyl alanine amino diol compounds for treatment of hypertension” (G. D. Searle & Co., priority 1995, dated 1996):
Non-standard residues stand in square brackets, D forms with d. Residues, ends and D or L forms follow the SMILES beside them. *: point of attachment. Sta = CC(C)C[C@H](N)[C@@H](O)CC(=O)O; Isovaleryl = CC(C)CC(=O)*

Columns and labels:
human renin = target: T1, human renin (Homo sapiens, UniProt P00797); assay: Human Renin Inhibition in vitro (angiotensin I produced, by radioimmunoassay); format: biochemical; settings: pH 7.4, 37° C., two hours, human plasma
T1 construct: purchased National Institute for Biological Standards, London
T1 sequence (P00797 67-406): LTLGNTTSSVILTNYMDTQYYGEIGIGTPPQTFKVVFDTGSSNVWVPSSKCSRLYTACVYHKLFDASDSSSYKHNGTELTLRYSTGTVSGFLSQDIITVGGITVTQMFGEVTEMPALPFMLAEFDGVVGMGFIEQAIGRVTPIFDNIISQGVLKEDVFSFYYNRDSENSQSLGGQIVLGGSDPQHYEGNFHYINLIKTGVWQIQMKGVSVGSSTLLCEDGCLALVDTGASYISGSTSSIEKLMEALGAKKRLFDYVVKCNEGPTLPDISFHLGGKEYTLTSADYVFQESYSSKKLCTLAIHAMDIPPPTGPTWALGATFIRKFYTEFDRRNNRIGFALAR
Experimental: Compounds of Formula I were evaluated as inhibitors of human renin in an in vitro assay, as follows: This human renin inhibition test has been previously described in detail [Papaioannou et al., Clinical and Experimental Hypertension, A7(9), 1243-1257 (1985)]. Human renin was obtained from the National Institute for Biological Standards, London. An incubation mixture was prepared containing the following components: in a total volume of 0.25 mL: 100 mM Tris-acetate buffer at pH 7.4, 25×10^-6 Goldblatt units of renin, 0.05 mL of plasma from human volunteers taking oral contraceptives, 6.0 mM Na-EDTA, 2.4 mM phenylmethyl sulfonyl fluoride, 1.5 mM 8-hydroxyquinoline, 0.4 mg/mL bovine serum albumin (BSA), and 0.024 mg/mL neomycin sulfate. This mixture was incubated for two hours at 37° C. in the presence or absence of renin inhibitors. The produced angiotensin I was determined by radioimmunoassay (New England Nuclear kit). Test compounds to be assayed were dissolved in DMSO and diluted with 100mM Tris-acetate buffer at pH 7.4 containing 0.5% BSA to the appropriate concentration. The final concentration of organic solvent in the reaction mixture was less than 1%. Control incubations at 37° C. were used to correct for effects of organic solvent on renin activity.

hog renin = settings: after the injection of hog renin into nephrectomized rats; cited from earlier work
renin = settings: cited from earlier work
pepsin = settings: cited from earlier work
cathepsin D = settings: cited from earlier work

| IC50 (human renin) | SMILES | reduce blood pressure in vivo (hog renin) | inhibitor of renin (renin) | inhibitor of pepsin (pepsin) | inhibitor of cathepsin D (cathepsin D) |
| --- | --- | --- | --- | --- | --- |
| 150 pM | C#CC[C@H](NC(=O)[C@@H](CC(=O)N(C)CCc1ccccn1)Cc1ccccc1)C(=O)N[C@@H](CC1CCCCC1)[C@@H](O)[C@@H](O)CC(C)C (relative stereo) [Example 1, N^1-[1R*-[[[1S, 1R*- (cyclohexylmethyl)-2S*, 3R*-dihydroxy-5-methylhexyl]amino]carbonyl]-3-butynyl]-N^4-methyl-2S*-(phenylmethyl)-N^4-[2-(2-pyridinyl)ethyl]butanediamide] | – | – | – | – |
| – | CC(C)CC(=O)N[C@H](C(=O)N[C@H](C(=O)N[C@@H](CC(C)C)[C@@H](O)CC(=O)N[C@@H](C)C(=O)N[C@@H](CC(C)C)[C@@H](O)CC(=O)O)C(C)C)C(C)C [pepstatin] (Isovaleryl-VV[Sta]A[Sta]-OH) | reduce blood pressure in vivo | inhibitor | inhibitor | inhibitor |
